{"source": "patent EP0710105B1", "about": "“SYNERGISTIC ANTHELMINTIC COMPOSITIONS AGAINST FASCIOLA HEPATICA AND OTHER FASCIOLA SPECIES” (THE AUSTRALIAN NATIONAL UNIVERSITY, priority 1993, dated 1994)", "assay_type_in_all_cases": "in vivo", "key": {"[1]": {"tested_on": "Fasciola hepatica aged 6 weeks resistant to salicylanilides (closantel), susceptible to the other drug families used", "assay": "Controlled test in sheep: efficacy against immature F. hepatica, salicylanilide-resistant strain", "conditions": "for efficacy: given alone at low dose rates", "excerpt": "(§1) In six controlled tests, a total of 212 merino wethers aged 1 to 2.5 years were used. The sheep were obtained from fluke free areas in North-West New South Wales.\n(§2) Some isolates used in the trials were obtained from existing laboratory populations but the majority of the strains were isolated from the field, their resistance status was defined in several controlled tests and the isolates were then maintained in the laboratory. A laboratory strain from Compton U.K. (Compton Paddock Laboratories, Newbury, Berks. UK) was included in the tests. […] The other isolates originated from properties where salicylanilide compounds were used with variable frequency for the control of fasciolosis or haemonchosis, and also various benzimidazole carbamates were used for the control of gastrointestinal nematodes. Those isolates were further selected in the laboratory with benzimidazole compounds, such as luxabendazole (Hoechst Pty.Ltd., Frankfurt am Main, Germany) or by 8 weekly dosing a group of sheep with triclabendazole (Fasinex, CIBA-GEIGY Aust.Ltd., Pendle Hill, NSW Australia) in a 2 acre paddock with natural snail habitats contaminated with Fasciola hepatica .\n(§3) In the trials, F.hepatica populations were isolated from properties and passaged through suitable intermediate host snails, Lymnaea tomentosa, L.viridis and L.columella in the laboratory. Sheep were then inoculated with the metacercariae of the selected strains by intraruminal injection of metacercariae suspended in 0.4% carboxy-methylcellulose solution. The sheep were divided into groups of 4 or 5. Standardised control tests (Boray, 1969), were carried out to determine the efficacy of various drugs and combinations against immature F.hepatica isolates.\n(§4) Percentage reductions of fluke burdens for the sum of the individual drugs and for the combinations were estimated and their 95 % confidence limits were determined.\n(§5) The drugs tested were triclabendazole (Fasinex, CIBA-GEIGY Australia Ltd.), clorsulon (Curatrem, MSD AGVET Rahway, New Jersey, USA), luxabendazole (Hoechst Pty.Ltd., Frankfurt am Main, Germany), closantel (Seponver, SmithKline Animal Health Australia Ltd.), closantel injectible (Flukiver, Janssen Pharma, Belgium), clorsulon injectible (Ivomec F, MSD Agvet,Rahway, New Jersey, USA) and nitroxynil injectible (Trodax, Cyanamid-Webster Australia Ltd.) The commercial formulations were used and for uniform pharmacokinetic distribution they were injected intraruminally (for those drugs it is equal to oral dosing) at the selected dose rate according to the body weight of the sheep 6 weeks after inoculation. In the trials with the injectible nitroxynil the drugs were applied as a subcutaneous injection. For each trial a group of sheep were left untreated as controls. The sheep were slaughtered 16 weeks after inoculation and the flukes were recovered from the livers and counted. […] The dose rates were selected based on many preliminary studies on the efficacy against F.hepatica aged 6 weeks. […] According to accepted standards (Boray, 1969) high efficacy is achieved when the drug reduces the fluke burden by 90% or more."}, "[2]": {"tested_on": "Fasciola hepatica aged 6 weeks resistant to triclabendazole", "assay": "Controlled test in sheep: efficacy against immature F. hepatica, triclabendazole-resistant strain", "excerpt": "as §1, §2, §3, §4, §5"}, "[3]": {"tested_on": "Fasciola hepatica aged 6 weeks resistant to salicylanilides (closantel) and benzimidazole carbamates (luxabendazole)", "assay": "Controlled test in sheep: efficacy against immature F. hepatica, multiple resistant Armidale-Morven strain", "excerpt": "as §1, §2, §3, §4, §5"}, "[4]": {"tested_on": "Fasciola hepatica aged 6 weeks (Susceptible to the drugs used)", "assay": "Controlled test in sheep: efficacy against immature F. hepatica, susceptible strain", "excerpt": "as §1, §2, §3, §4, §5"}, "[5]": {"tested_on": "Fasciola hepatica aged 6 weeks, resistant to salicylanilides", "assay": "Controlled test in sheep, subcutaneous injection: efficacy against immature F. hepatica, Hampton II strain", "excerpt": "as §1, §2, §3, §4, §5"}, "[6]": {"conditions": "5.0 mg/kg intraruminal, 5 mg/kg"}, "[7]": {"conditions": "7.5 mg/kg intraruminal, 7.5 mg/kg"}, "[8]": {"conditions": "3.0 mg/kg subcutaneous injection"}, "[9]": {"conditions": "5.0 mg/kg intraruminal, listed as luxabendazole, 5 mg/kg"}, "[10]": {"conditions": "7.0 mg/kg subcutaneous injection"}, "[11]": {"conditions": "2.0 mg/kg intraruminal, 2 mg/kg"}}, "note": "Several values for one entry are separate records, joined by “and”; a condition that tells them apart may be missing. Equal values may be shown once.", "data": [{"smiles": "CCCSc1ccc2nc(NC(=O)OC)[nH]c2c1", "note": "[Albendazole, albendazole]", "values": [{"measurement": "Mean No. of Fluke (SD)", "setting": "[1]; 5.0 mg/kg intraruminal", "value": "52.7 (6.9)"}, {"measurement": "Percent Reduction of Fluke Burden (95% Confidence limits)", "setting": "[1]; 5.0 mg/kg intraruminal", "value": "28.4 (6, 72) %"}, {"measurement": "efficacy", "setting": "[1]", "value": "very low efficacy"}]}, {"smiles": "Nc1cc(C(Cl)=C(Cl)Cl)c(S(N)(=O)=O)cc1S(N)(=O)=O", "note": "[Clorsulon, clorsulon]", "values": [{"measurement": "Mean No. of Fluke (SD)", "setting": "[1]; 3.0 mg/kg intraruminal", "value": "57.5 (19.6)"}, {"measurement": "Percent Reduction of Fluke Burden (95% Confidence limits)", "setting": "[1]; 3.0 mg/kg intraruminal", "value": "21.9 (3, 74) %"}, {"measurement": "efficacy", "setting": "[1]", "value": "very low efficacy"}, {"measurement": "Mean No. of Fluke (SD)", "setting": "[2]; 3.0 mg/kg intraruminal", "value": "55.7 (42.9)"}, {"measurement": "Percent Reduction of Fluke Burden (95% Confidence limits)", "setting": "[2]; 3.0 mg/kg intraruminal, 3 mg/kg", "value": "30% and 30.5 (2, 91) %"}, {"measurement": "Mean No. of Fluke (SD)", "setting": "[2]; 5.0 mg/kg intraruminal", "value": "45.0 (26.3)"}, {"measurement": "Percent Reduction of Fluke Burden (95% Confidence limits)", "setting": "[2]; [6]", "value": "43% and 43.9 (7, 89) %"}, {"measurement": "Mean No. of Fluke (SD)", "setting": "[3]; 5.0 mg/kg intraruminal", "value": "41.0 (3.7)"}, {"measurement": "Percent Reduction of Fluke Burden (95% Confidence limits)", "setting": "[3]; [6]", "value": "52.7 (33,72) %"}, {"measurement": "Percent Reduction of Fluke Burden (95% Confidence limits)", "setting": "[3]; 5.0 mg/kg intraruminal, listed as clorsulon, 5 mg/kg", "value": 52, "unit": "%"}, {"measurement": "Mean No. of Fluke (SD)", "setting": "[4]; 3.0 mg/kg intraruminal", "value": "32.5 (4.4)"}, {"measurement": "Percent Reduction of Fluke Burden (95% Confidence limits)", "setting": "[4]; 3.0 mg/kg intraruminal", "value": "25.9 (6, 67) %"}, {"measurement": "Mean No. of Fluke (SD)", "setting": "[4]; 5.0 mg/kg intraruminal", "value": "30.0 (11.6)"}, {"measurement": "Percent Reduction of Fluke Burden (95% Confidence limits)", "setting": "[4]; 5.0 mg/kg intraruminal", "value": "31.6 (9, 67) %"}, {"measurement": "Mean No. of Fluke (SD)", "setting": "[5]; 2.0 mg/kg subcutaneous injection", "value": "18.4 (6.6)"}, {"measurement": "Percent Reduction of Fluke Burden (95% Confidence limits)", "setting": "[5]; 2.0 mg/kg subcutaneous injection, 2 mg/kg", "value": "36.6 (9.76) %"}, {"measurement": "Percent Reduction of Fluke Burden (95% Confidence limits)", "setting": "[5]; 2.0 mg/kg subcutaneous injection, listed as clorsulon, 2 mg/kg", "value": 36.5, "unit": "%"}]}, {"smiles": "Cc1cc(C(C#N)c2ccc(Cl)cc2)c(Cl)cc1NC(=O)c1cc(I)cc(I)c1O", "note": "(centres unmarked) [Closantel, closantel]", "values": [{"measurement": "Mean No. of Fluke (SD)", "setting": "[1]; 5.0 mg/kg intraruminal", "value": "62.0 (17.1)"}, {"measurement": "Mean No. of Fluke (SD)", "setting": "[1]; 7.5 mg/kg intraruminal", "value": "48.2 (38 6)"}, {"measurement": "Percent Reduction of Fluke Burden (95% Confidence limits)", "setting": "[1]; 7.5 mg/kg intraruminal", "value": "34.5 (10, 72) %"}, {"measurement": "efficacy", "setting": "[1]", "value": "very low efficacy"}, {"measurement": "Mean No. of Fluke (SD)", "setting": "[3]; 7.5 mg/kg intraruminal", "value": "118 (113.3)"}, {"measurement": "Percent Reduction of Fluke Burden (95% Confidence limits)", "setting": "[3]; 7.5 mg/kg intraruminal", "value": 0.0, "unit": "%"}, {"measurement": "Percent Reduction of Fluke Burden (95% Confidence limits)", "setting": "[3]; [7]", "value": "inefficient"}, {"measurement": "Mean No. of Fluke (SD)", "setting": "[5]; [8]", "value": "24.4 (14.4)"}, {"measurement": "Percent Reduction of Fluke Burden (95% Confidence limits)", "setting": "[5]; [8]", "value": 15.9, "unit": "%"}]}, {"smiles": "COC(=O)Nc1nc2ccc(Sc3ccccc3)cc2[nH]1", "note": "[Fenbendazole, fenbendazole]", "values": [{"measurement": "Mean No. of Fluke (SD)", "setting": "[1]; 5.0 mg/kg intraruminal", "value": "71.0 (8.0)"}, {"measurement": "Percent Reduction of Fluke Burden (95% Confidence limits)", "setting": "[1]; 5.0 mg/kg intraruminal", "value": 3.6, "unit": "%"}, {"measurement": "efficacy", "setting": "[1]", "value": "very low efficacy"}]}, {"smiles": "COC(=O)Nc1nc2cc(OS(=O)(=O)c3ccc(F)cc3)ccc2[nH]1", "note": "[Luxabendazole, luxabendazole]", "values": [{"measurement": "Mean No. of Fluke (SD)", "setting": "[1]; 5.0 mg/kg intraruminal", "value": "51.7 (25.3)"}, {"measurement": "efficacy", "setting": "[1]", "value": "very low efficacy"}, {"measurement": "Mean No. of Fluke (SD)", "setting": "[2]; 5.0 mg/kg intraruminal", "value": "62.7 (61.3)"}, {"measurement": "Percent Reduction of Fluke Burden (95% Confidence limits)", "setting": "[2]; [6]", "value": "21.7 (1, 95) %"}, {"measurement": "Percent Reduction of Fluke Burden (95% Confidence limits)", "setting": "[2]; [9]", "value": 21, "unit": "%"}, {"measurement": "Mean No. of Fluke (SD)", "setting": "[3]; 7.5 mg/kg intraruminal", "value": "89.0 (22.6)"}, {"measurement": "Percent Reduction of Fluke Burden (95% Confidence limits)", "setting": "[3]; 7.5 mg/kg intraruminal", "value": 0.0, "unit": "%"}, {"measurement": "Percent Reduction of Fluke Burden (95% Confidence limits)", "setting": "[3]; [7]", "value": "inefficient"}, {"measurement": "Mean No. of Fluke (SD)", "setting": "[4]; 5.0 mg/kg intraruminal", "value": "32.0 (9.5)"}, {"measurement": "Percent Reduction of Fluke Burden (95% Confidence limits)", "setting": "[4]; [6]", "value": "27.0 (6, 67) %"}, {"measurement": "Percent Reduction of Fluke Burden (95% Confidence limits)", "setting": "[4]; [9]", "value": 26, "unit": "%"}]}, {"smiles": "N#Cc1cc(I)c(O)c([N+](=O)[O-])c1", "note": "[Nitroxynil, nitroxynil]", "values": [{"measurement": "Mean No. of Fluke (SD)", "setting": "[5]; [10]", "value": "26.6 (6.6)"}, {"measurement": "Percent Reduction of Fluke Burden (95% Confidence limits)", "setting": "[5]; [10]", "value": 8.3, "unit": "%"}]}, {"smiles": "COC(=O)Nc1nc2ccc([S+]([O-])c3ccccc3)cc2[nH]1", "note": "(centres unmarked) [Oxfendazole, oxfendazole]", "values": [{"measurement": "Mean No. of Fluke (SD)", "setting": "[1]; 5.0 mg/kg intraruminal", "value": "74.5 (14.8)"}, {"measurement": "efficacy", "setting": "[1]", "value": "very low efficacy"}]}, {"smiles": "CSc1nc2cc(Cl)c(Oc3cccc(Cl)c3Cl)cc2[nH]1", "note": "[Triclabendazole, triclabendazole]", "values": [{"measurement": "Mean No. of Fluke (SD)", "setting": "[2]; 2.0 mg/kg intraruminal", "value": "55.0 (51.1)"}, {"measurement": "Percent Reduction of Fluke Burden (95% Confidence limits)", "setting": "[2]; [11]", "value": "31.4 (2, 91) %"}, {"measurement": "Percent Reduction of Fluke Burden (95% Confidence limits)", "setting": "[2]; 2.0 mg/kg intraruminal, listed as triclabendazole, 2 mg/kg", "value": 30, "unit": "%"}, {"measurement": "Mean No. of Fluke (SD)", "setting": "[3]; 2.0 mg/kg intraruminal", "value": "25.5 (13.5)"}, {"measurement": "Percent Reduction of Fluke Burden (95% Confidence limits)", "setting": "[3]; 2.0 mg/kg intraruminal", "value": 70, "unit": "%"}, {"measurement": "Percent Reduction of Fluke Burden (95% Confidence limits)", "setting": "[3]; [11]", "value": "70.6 (53, 83) %"}, {"measurement": "Mean No. of Fluke (SD)", "setting": "[4]; 2.0 mg/kg intraruminal 6 weeks after inoculation, slaughter at 16 weeks", "value": "9.2 (8.3)"}, {"measurement": "Percent Reduction of Fluke Burden (95% Confidence limits)", "setting": "[4]; 2.0 mg/kg intraruminal, vs untreated controls, 2 mg/kg", "value": "78.9 (58, 91) %"}, {"measurement": "Percent Reduction of Fluke Burden (95% Confidence limits)", "setting": "[4]; 2.0 mg/kg intraruminal, vs untreated controls, listed as triclabendazole, 2 mg/kg", "value": 79, "unit": "%"}]}]}
